Measured values reported in US20250099478A1, “PLASMA KALLIKREIN INHIBITORS” (Merck Sharp & Dohme LLC, priority 2022, published 2025).

Tests used:
Human plasma kallikrein = target: T1, Human plasma kallikrein (Homo sapiens, UniProt P03952); assay: Plasma Kallikrein Assay; format: biochemical; conditions: purified Human plasma kallikrein 0.5 nM, substrate Acetyl-K-P-R-AFC; read-out: PKal IC50
T1 construct: yields a heavy chain (371 amino acids) and a light chain (248 amino acids); purchased Enzyme Research Laboratories
Procedure, shortened: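 Purified human plasma kallikrein (0.5 nM) hydrolysing fluorogenic Acetyl-K-P-R-AFC ([…]) in 50 mM HEPES pH 7.4, 150 mM NaCl, 5 mM CaCl2, 0.1% PEG 8000, at rt or 37 °C after enzyme–inhibitor equilibration. IC50 from four-parameter logistic fit; Ki via Cheng–Prusoff.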

human factor XIa = target: T2, human factor XIa (Homo sapiens, UniProt P03951); assay: Factor XIa Assay; format: biochemical; conditions: human factor XIa 0.04 nM, substrate GPR-AFC, 25° C.
T2 construct: with human (0.04 nM) factor XIa
T2 sequence (P03951 388-625 limits assumed): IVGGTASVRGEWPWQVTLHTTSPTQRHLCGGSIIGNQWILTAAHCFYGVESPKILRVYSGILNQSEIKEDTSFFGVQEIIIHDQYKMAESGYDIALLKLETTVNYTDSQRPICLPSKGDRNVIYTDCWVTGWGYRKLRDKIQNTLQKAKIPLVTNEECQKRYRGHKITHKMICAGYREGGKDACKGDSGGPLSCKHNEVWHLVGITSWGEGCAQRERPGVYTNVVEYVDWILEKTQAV
T2 sequence (P03951 19-387 partner limits assumed): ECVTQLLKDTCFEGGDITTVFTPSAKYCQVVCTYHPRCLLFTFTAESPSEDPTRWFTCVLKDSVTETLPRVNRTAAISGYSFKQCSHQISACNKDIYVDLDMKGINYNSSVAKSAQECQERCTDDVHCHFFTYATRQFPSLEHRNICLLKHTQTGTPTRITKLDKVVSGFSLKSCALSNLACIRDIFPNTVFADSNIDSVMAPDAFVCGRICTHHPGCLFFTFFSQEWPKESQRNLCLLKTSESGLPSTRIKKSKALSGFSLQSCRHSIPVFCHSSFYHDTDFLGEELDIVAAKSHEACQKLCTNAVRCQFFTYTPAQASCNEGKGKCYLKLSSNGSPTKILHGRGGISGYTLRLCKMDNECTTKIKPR

T1 sequence (P03952 391-638 limits assumed): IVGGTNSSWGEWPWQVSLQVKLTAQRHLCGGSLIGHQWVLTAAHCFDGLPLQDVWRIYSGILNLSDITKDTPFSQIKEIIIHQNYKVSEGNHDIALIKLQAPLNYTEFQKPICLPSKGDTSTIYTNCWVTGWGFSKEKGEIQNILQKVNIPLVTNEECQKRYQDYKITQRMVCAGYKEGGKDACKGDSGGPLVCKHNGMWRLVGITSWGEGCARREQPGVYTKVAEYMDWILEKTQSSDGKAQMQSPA
T1 sequence (P03952 20-390 partner limits assumed): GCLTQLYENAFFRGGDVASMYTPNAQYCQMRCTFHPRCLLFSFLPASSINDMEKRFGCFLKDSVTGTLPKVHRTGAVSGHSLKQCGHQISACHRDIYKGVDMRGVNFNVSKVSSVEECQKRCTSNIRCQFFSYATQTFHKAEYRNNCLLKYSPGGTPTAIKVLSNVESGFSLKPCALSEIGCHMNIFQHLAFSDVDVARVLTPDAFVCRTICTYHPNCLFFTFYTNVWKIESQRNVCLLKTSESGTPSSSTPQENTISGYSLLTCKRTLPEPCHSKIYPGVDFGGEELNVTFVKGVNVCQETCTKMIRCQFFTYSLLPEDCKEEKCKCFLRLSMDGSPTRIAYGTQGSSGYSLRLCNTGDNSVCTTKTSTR

`CC[C@H](c1ccc(F)cc1)c1ncc(C(=O)N2CCC[C@@]3(C2)OC(=O)Nc2ccc(Cl)c(F)c23)[nH]1` (single isomer, unassigned) [Example 80] gave an IC50 (Human plasma kallikrein) of 1.9 nM and an IC50 (human factor XIa) of 179 nM.
Compound `O=C1Nc2ccc(Cl)c(F)c2[C@@]2(CCCN(C(=O)c3nnc(C(Cc4ccccc4)c4ccccc4)[nH]3)C2)O1` (single isomer, unassigned) [Example 104] has an IC50 (Human plasma kallikrein) of 16.6 nM and an IC50 (human factor XIa) of 2990 nM.
`CCC(c1ccc(F)c(Cl)c1)c1nnc(C(=O)N2CCC[C@@]3(C2)OC(=O)Nc2ccc(Cl)c(F)c23)[nH]1` (single isomer, unassigned) [Example 96] was tested, and the IC50 (Human plasma kallikrein) was 3.5 nM and the IC50 (human factor XIa) was 5080 nM.
`O=C1Nc2ccc(Cl)c(F)c2[C@@]2(CCCN(C(=O)c3nnc(Cc4ccccc4)[nH]3)C2)O1` [Example 86, (R)-1′-(5-Benzyl-4H-1,2,4-triazole-3-carbonyl)-6-chloro-5-fluorospiro[benzo[d][1,3]oxazine-4,3′-piperidin]-2(1H)-one] was tested, and the IC50 (Human plasma kallikrein) was 24.8 nM and the IC50 (human factor XIa) was 6890 nM.
Work on `O=C1Nc2ccc(Cl)c(F)c2[C@@]2(CCCN(C(=O)c3nnc(C4(c5ccc(F)cc5)CCOCC4)[nH]3)C2)O1` [Example 94, (R)-6-Chloro-5-fluoro-1′-(5-(4-(4-fluorophenyl)tetrahydro-2H-pyran-4-yl)-4H-1,2,4-triazole-3-carbonyl)spiro[benzo[d][1,3]oxazine-4,3′-piperidin]-2(1H)-one] yielded an IC50 (Human plasma kallikrein) of 5.6 nM and an IC50 (human factor XIa) of 2490 nM.
`CC[C@@H](c1ccc(F)cc1)c1ncc(C(=O)N2CCC[C@@]3(C2)OC(=O)Nc2ccc(Cl)c(F)c23)[nH]1` (single isomer, unassigned) [Example 79] showed an IC50 (Human plasma kallikrein) of 1.7 nM and an IC50 (human factor XIa) of 194 nM.
Work on `O=C1Nc2ccc(Cl)c(F)c2[C@@]2(CCCN(C(=O)c3cnn(C(CC4CC4)c4ccccc4)c3)C2)O1` (single isomer, unassigned) [Example 29] yielded an IC50 (Human plasma kallikrein) of 6.9 nM and an IC50 (human factor XIa) of 1570 nM.
In the case of `C[C@@H](O)[C@H](c1ccccc1)n1cc(C(=O)N2CCC[C@@]3(C2)OC(=O)Nc2ccc(Cl)c(F)c23)cn1` [Example 16, (R)-6-Chloro-5-fluoro-1′-(1-((1S,2R)-2-hydroxy-1-phenylpropyl)-1H-pyrazole-4-carbonyl)spiro[benzo[d][1,3]oxazine-4,3′-piperidin]-2(1H)-one], the IC50 (Human plasma kallikrein) is reported as 40.3 nM and the IC50 (human factor XIa) is reported as 1450 nM.
Compound `CC(C)(c1ccccc1)c1nnc(C(=O)N2CCC[C@@]3(C2)OC(=O)Nc2ccc(Cl)c(F)c23)[nH]1` [Example 93, (R)-6-Chloro-5-fluoro-1′-(5-(2-phenylpropan-2-yl)-4H-1,2,4-triazole-3-carbonyl)spiro[benzo[d][1,3]oxazine-4,3′-piperidin]-2(1H)-one] has an IC50 (Human plasma kallikrein) of 29.9 nM and an IC50 (human factor XIa) of 3160 nM.
`C[C@H](O)[C@@H](c1ccccc1)n1cc(C(=O)N2CCC[C@@]3(C2)OC(=O)Nc2ccc(Cl)c(F)c23)cn1` [Example 9, (R)-6-Chloro-5-fluoro-1′-(1-((1R,2S)-2-hydroxy-1-phenylpropyl)-1H-pyrazole-4-carbonyl)spiro[benzo[d][1,3]oxazine-4,3′-piperidin]-2(1H)-one] gave an IC50 (Human plasma kallikrein) of 29.7 nM and an IC50 (human factor XIa) of 5590 nM.
With `O=C1Nc2ccc(Cl)c(F)c2[C@@]2(CCCN(C(=O)c3nnc(C(CC(F)(F)F)c4ccccc4)[nH]3)C2)O1` (single isomer, unassigned) [Example 99] the IC50 (Human plasma kallikrein) was 9.7 nM and the IC50 (human factor XIa) was 1370 nM.
Compound `O=C1Nc2ccc(Cl)c(F)c2[C@@]2(CCCN(C(=O)c3nnc(C(CC(F)(F)F)c4cccc(Cl)c4)[nH]3)C2)O1` (single isomer, unassigned) [Example 101] has an IC50 (Human plasma kallikrein) of 10.4 nM and an IC50 (human factor XIa) of 4010 nM.
`CC[C@H](c1cc(C)c2nc[nH]c2c1)c1n[nH]c(C(=O)N2CCC[C@@]3(C2)OC(=O)Nc2ccc(Cl)c(F)c23)n1` [Example 110, (R)-6-Chloro-5-fluoro-1′-(3-((R)-1-(4-methyl-1H-benzo[d]imidazol-6-yl)propyl)-1H-1,2,4-triazole-5-carbonyl)spiro[benzo[d][1.3]oxazine-4,3′-piperidin]-2(1H)-one] showed an IC50 (Human plasma kallikrein) of 1 nM and an IC50 (human factor XIa) of 1220 nM.
For `CCC(c1ccc2cnccc2c1)n1cc(C(=O)N2CCC[C@@]3(C2)OC(=O)Nc2ccc(Cl)c(F)c23)cn1` (single isomer, unassigned) [Example 35], the IC50 (Human plasma kallikrein) was 2.6 nM and the IC50 (human factor XIa) was 1020 nM.
In the case of `Cc1cc(Cc2nnc(C(=O)N3CCC[C@@]4(C3)OC(=O)Nc3ccc(Cl)c(F)c34)[nH]2)cc2[nH]ncc12` [Example 124, (R)-6-Chloro-5-fluoro-1′-(5-((4-methyl-1H-indazol-6-yl)methyl)-4H-1,2,4-triazole-3-carbonyl)spiro[benzo[d][1,3]oxazine-4,3′-piperidin]-2(1H)-one], the IC50 (Human plasma kallikrein) is reported as 13.5 nM and the IC50 (human factor XIa) is reported as 7760 nM.
`O=C1Nc2ccc(Cl)c(F)c2[C@@]2(CCCN(C(=O)c3nnc(C(CC(F)(F)F)c4cccc(Cl)c4)[nH]3)C2)O1` (single isomer, unassigned) [Example 100] gave an IC50 (Human plasma kallikrein) of 2.2 nM and an IC50 (human factor XIa) of 1450 nM.
In the case of `CCC(O)(c1ccc(F)cc1)c1n[nH]c(C(=O)N2CCC[C@@]3(C2)OC(=O)Nc2ccc(Cl)c(F)c23)n1` (single isomer, unassigned) [Example 128, (R)-6-Chloro-5-fluoro-1′-(3-(UR or S)-1-(4-fluorophenyl)-1-hydroxypropyl)-1H-1,2,4-triazole-5-carbonyl)spiro[benzo[d][1,3]oxazine-4,3′-piperidin]-2(1H)-one], the IC50 (Human plasma kallikrein) is reported as 4 nM and the IC50 (human factor XIa) is reported as 382 nM.
With `CCC(c1ccc(F)cc1)c1c[nH]c(C(=O)N2CCC[C@@]3(C2)OC(=O)Nc2ccc(Cl)c(F)c23)n1` (stereo partly drawn) [Example 70, (4R)-6-Chloro-5-fluoro-1′-(4-(1-(4-fluorophenyl)propyl)-1H-imidazole-2-carbonyl)spiro[benzo[d][1,3]oxazine-4,3′-piperidin]-2(1H)-one] the IC50 (Human plasma kallikrein) was 5.7 nM and the IC50 (human factor XIa) was 946 nM.
With `CCC(c1ccc2ncncc2c1)n1cc(C(=O)N2CCC[C@@]3(C2)OC(=O)Nc2ccc(Cl)c(F)c23)cn1` (single isomer, unassigned) [Example 42] the IC50 (Human plasma kallikrein) was 14.1 nM and the IC50 (human factor XIa) was 5230 nM.
With `CCC(c1ccnc(C(F)(F)F)c1)n1cc(C(=O)N2CCC[C@@]3(C2)OC(=O)Nc2ccc(Cl)c(F)c23)cn1` (single isomer, unassigned) [Example 38] the IC50 (Human plasma kallikrein) was 1.8 nM and the IC50 (human factor XIa) was 2060 nM.
`O=C1Nc2ccc(Cl)c(F)c2[C@@]2(CCCN(C(=O)c3cnn([C@H](CC4CC4)c4ccccc4)c3)C2)O1` (single isomer, unassigned) [Example 2] showed an IC50 (Human plasma kallikrein) of 3.2 nM and an IC50 (human factor XIa) of 206 nM.
